One test relates to MM.1S cells. As to the kind of experiment: MTT cell growth assay with stromal cell supernatant. It is filed as cell-based, human. Particulars: 72 hours; for growth inhibitory effect of Lenalidomide/Pomalidomide in combination: in the presence of stromal cell supernatant. The procedure:
FIG. 29 is a graph showing cell growth of MM.1S cells treated for 72 hours with Compound I-50 or I-51 alone or in combination with stromal cell supernatant in an MTT assay in triplicate.
FIG. 30 is a graph showing cell growth of MM.1S cells treated for 72 hours with Lenalidomide/Pomalidomide in the presence of stromal cell supernatant alone or in combination with Compound I-50 in an MTT assay in triplicate.
FIG. 31 is a graph showing cell growth of MM.1S cells treated for 72 hours with Lenalidomide/Pomalidomide in the presence of stromal cell supernatant alone or in combination with Compound I-51 in an MTT assay in triplicate.
MM. 1S, KMS20, H929 MM cells, RPMI/8226, OPM-2 and U266 were counted and diluted to a final concentration of 400,000 cells/mL. The cell were plated in 96-well plates and mixed with an equal volume of culture media containing DMSO or increasing concentration of a compound of the present application diluted in DMSO (the final DMSO concentration is equal between all tested samples), using a STARlet Robot (Hamiltonrobotics, Reno, Nev., United States). Cells with increasing concentration of compound of the present application and DMSO were […] at different time points (24 hrs to 72 hrs). Viability was assessed by MTT or Cell Titer 96® AQueous One Solution cell proliferation assay (Promega). Specifically, for the MTT assay, the 3-[4,5 dimethylthiazol-2-yl]-2,5 diphenyltetrazolium bromide-MTT (Sigma-Aldrich, St. Louis, Mo., Unites States) colorimetric survival assay was used. At the various time points (24-72 hrs), 10 μL of 5 mg/mL MTT were added to cells. After 4 hrs incubation at 37° C., medium was discarded and 100 μL MTT stop solution (DMSO or Isopropanol with 1 N HCl) was used to dissolve MTT metabolic products. Absorbance was read at 570/630 nm. For the Promega assay, at the various time points, 20 μL of Cell Titer solution is added to the cells. After 4 hrs of incubation at 37° C. absorbance was read at […].

In the next test the test system is YAP1. As to the kind of experiment: Western blotting. Particulars: for YAP1 levels: H929 and MM.1S cells. It is filed as cell-based. An excerpt:
MM.1S, KMS20 and H929 cells are counted, diluted and plated. Cells are then […] with DMSO or different concentration of a compound of the present application for 6 hrs, 24 hrs or 48 hrs. MM cells are then collected and centrifuged at RT and the pellets are re-suspended in lysis buffer. Cell lysates are subjected to sodium dodecyl sulfate-polyacrylamide gel electrophoresis SDS-PAGE, transferred to nitrocellulose membranes, and immunoblotted with different antibodies.
MM.1S, KMS20 and H929 cells were counted, diluted and plated in six-well plates to a final concentration of 500,000 cells/well. Cells were then […] with DMSO or different concentration of a compound of the present application for 6 hrs, 24 hrs or 48 hrs. MM cells were then collected and centrifuged for 5 min, 1300 rpm at RT. The pellets were re-suspended in lysis buffer Laemli 1× (Laemli 5×: SDS 10%, DTT 500 mM, Tris-HCl pH6.8 0.4M, BromoFenol Blue, Glycerol 50%). Cell lysates were subjected to sodium dodecyl sulfate-polyacrylamide gel electrophoresis SDS-PAGE, transferred to nitrocellulose membranes, and immunoblotted with different antibodies: YAP1 (#4912), p-YAP1 (S127) (#13008), LATS1 (#9153), p-LATS1 (Thr1079) (#8654), MOB1 (#3863), p-MOB1 (Thr12) (#8843), p-MST1/p-MST2 (Thr183/Thr180) (#3681), p21 (#2947), PARP (#9532), ERK, STAT, and GAPDH (#5174) from Cell Signaling, Beverly, Mass., United States; STK4 (ab57836) (from Abcam, Cambridge, Mass., United States); PUMA (sc-28226), BAX (sc-20067), from Santa Cruz, Dallas, Tex., United States; β-actin from Sigma-Aldrich (St. Louis, Mo., United States). All antibodies were diluted 1:500, except for β-actin antibody (1:50,000 dilution). In FIG. 8, H929 cells were treated with Compound I-9 or DMSO at 1 μM concentration for 24 hours. Lysates were then obtained and immunoblot was performed using antibodies against PARP, YAP1, PUMA, BAX. p21, and GAPDH.
In FIG. 10A, H929 and MM.1S cells were treated with Compound I-1 or DMSO at 1 μM and 10 μM concentrations for 16 hours. Lysates were then obtained and immunoblot was performed using antibodies against YAP1 and GAPDH.
In FIG. 12, H929 and MM. 1S cells were treated with Compound I-9, Compound I-12, or DMSO at 3 μM and 10 μM concentrations for 72 hours. Lysates were then obtained and immunoblot was performed using antibodies against YAP1 and Actin as loading control.
FIG. 13 show a Western blot of H929 and MM.1S cells treated with Compound I-13, Compound I-28, Compound I-9, KIN001-305, BMS536924, or DMSO at 1 μM concentration for 16 hours. Lysates were then obtained and immunoblot was performed using antibodies against YAP1, Actin, and pMOB1.

A further test has as its target JAK2 domain2 (Homo sapiens (Human), UniProt O60674). As to the kind of experiment: KiNativ assay. It is filed as binding. Particulars: H929 live cell. The essentials: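 Duplicate 10 μM treatment of H929 cells (live); MS-based KiNativ readout; IC50 reported.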
Another test deals with ITPK1 (Homo sapiens (Human), UniProt Q13572). As to the kind of experiment: KiNativ assay. The format is binding. To be noted: H929 live cell, range class. The procedure:
Biochemical IC50s of the compounds of the present disclosure against various kinases were measured in a KiNativ assay. Compounds were screened in duplicate at 10 μM in H929 live cell. IC50 was measured via Mass spectroscopy (MS).

In a further test the target is MST4 (Homo sapiens (Human), UniProt Q9P289). As to the kind of experiment: Z-lyte biochemical IC50 assay (Invitrogen). To be noted: ATP concentration matched the Km.
Setting [1] is: range class, read-out: % inhibition.

Like-named read-outs stand apart in the source and are kept apart here.

Chain of JAK2 domain2 (O60674 whole entry, the tested form may be a part): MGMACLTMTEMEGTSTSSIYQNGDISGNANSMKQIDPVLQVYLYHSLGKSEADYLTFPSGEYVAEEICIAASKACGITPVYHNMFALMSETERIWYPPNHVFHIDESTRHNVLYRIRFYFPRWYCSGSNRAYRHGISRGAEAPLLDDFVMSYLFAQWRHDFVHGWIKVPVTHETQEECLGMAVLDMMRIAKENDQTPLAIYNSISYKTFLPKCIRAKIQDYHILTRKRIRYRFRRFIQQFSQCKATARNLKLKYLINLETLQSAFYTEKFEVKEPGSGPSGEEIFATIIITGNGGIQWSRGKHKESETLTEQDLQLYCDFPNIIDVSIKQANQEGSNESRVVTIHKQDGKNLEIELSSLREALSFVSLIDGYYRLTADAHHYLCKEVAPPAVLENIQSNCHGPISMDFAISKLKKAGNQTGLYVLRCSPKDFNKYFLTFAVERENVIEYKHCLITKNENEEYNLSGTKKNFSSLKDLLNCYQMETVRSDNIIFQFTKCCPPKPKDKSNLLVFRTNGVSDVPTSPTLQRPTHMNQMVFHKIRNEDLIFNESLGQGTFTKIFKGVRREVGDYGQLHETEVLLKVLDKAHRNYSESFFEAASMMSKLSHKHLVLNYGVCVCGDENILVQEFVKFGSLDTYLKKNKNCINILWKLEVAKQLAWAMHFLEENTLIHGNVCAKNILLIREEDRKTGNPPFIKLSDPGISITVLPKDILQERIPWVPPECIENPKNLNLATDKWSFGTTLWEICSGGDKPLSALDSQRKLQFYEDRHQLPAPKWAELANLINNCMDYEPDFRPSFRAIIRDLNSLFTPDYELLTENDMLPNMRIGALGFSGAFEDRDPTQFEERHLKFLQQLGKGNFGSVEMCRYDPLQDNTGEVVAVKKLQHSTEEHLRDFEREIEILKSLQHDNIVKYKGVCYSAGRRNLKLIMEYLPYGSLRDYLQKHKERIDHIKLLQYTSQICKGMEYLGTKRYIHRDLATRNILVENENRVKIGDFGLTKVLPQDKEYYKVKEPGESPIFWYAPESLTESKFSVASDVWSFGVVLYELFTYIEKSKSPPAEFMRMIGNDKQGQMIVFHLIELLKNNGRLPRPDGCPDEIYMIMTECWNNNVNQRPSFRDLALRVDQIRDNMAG
Chain of ITPK1 (Q13572 whole entry): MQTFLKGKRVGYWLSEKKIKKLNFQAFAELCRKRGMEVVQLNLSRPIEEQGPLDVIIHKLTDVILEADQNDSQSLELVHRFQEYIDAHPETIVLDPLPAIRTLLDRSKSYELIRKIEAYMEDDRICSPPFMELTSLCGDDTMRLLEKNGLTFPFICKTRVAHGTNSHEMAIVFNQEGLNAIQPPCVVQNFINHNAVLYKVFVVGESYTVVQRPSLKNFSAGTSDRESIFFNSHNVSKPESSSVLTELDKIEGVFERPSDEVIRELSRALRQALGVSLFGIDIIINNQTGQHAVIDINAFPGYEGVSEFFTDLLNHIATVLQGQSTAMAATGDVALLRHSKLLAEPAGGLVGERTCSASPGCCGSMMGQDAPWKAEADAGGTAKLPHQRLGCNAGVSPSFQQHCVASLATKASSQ
Chain of MST4 (Q9P289 whole entry): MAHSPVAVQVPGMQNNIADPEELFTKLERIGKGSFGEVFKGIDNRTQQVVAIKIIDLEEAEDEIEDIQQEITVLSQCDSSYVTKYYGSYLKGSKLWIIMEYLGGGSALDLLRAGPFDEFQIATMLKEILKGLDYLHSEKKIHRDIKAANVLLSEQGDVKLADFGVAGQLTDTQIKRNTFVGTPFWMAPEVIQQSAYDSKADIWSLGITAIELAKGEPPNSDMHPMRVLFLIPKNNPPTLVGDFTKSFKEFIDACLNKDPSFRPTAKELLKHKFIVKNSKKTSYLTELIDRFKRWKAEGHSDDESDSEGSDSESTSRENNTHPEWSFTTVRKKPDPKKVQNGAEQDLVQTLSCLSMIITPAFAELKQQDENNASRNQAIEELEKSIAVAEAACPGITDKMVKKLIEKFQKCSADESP

Turning to `Nc1ncc(-c2ccc(NS(=O)(=O)C3CC3)cc2F)cc1-c1ccc2c(c1)CCNC2=O` [Compound I-51, N-(4-(6-amino-5-(1-oxo-1,2,3,4-tetrahydroisoquinolin-6-yl)pyridin-3-yl)-3-fluorophenyl) cyclopropanesulfonamide], in the test on MM.1S cells, the “susceptibility of cells on co-culture with stromal cell supernatant (cell growth, MTT)” value was “enhanced the susceptibility” and the “growth inhibitory effect of Lenalidomide/Pomalidomide in combination” value is listed as “enhanced the growth inhibitory effect”.
On to `CN(C1CC1)S(=O)(=O)c1ccc(-c2cnc(N)c(-c3ccc4c(c3)CCNC4=O)c2)c(F)c1` [Compound I-28, 4-(6-amino-5-(1-oxo-1,2,3,4-tetrahydroisoquinolin-6-yl)pyridin-3-yl)-N-cyclopropyl-3-fluoro-N-methylbenzenesulfonamide], for which the YAP1 levels entry in the test with YAP1 (1 μM, 16 hours) is recorded as “increase”.
As to `Nc1ncc(-c2cccc([N+](=O)[O-])c2F)cc1-c1ccc2c(c1)CCNC2=O` [Compound I-9, 6-(2-amino-5-(2-fluoro-3-nitrophenyl)pyridin-3-yl)-3,4-dihydroisoquinolin-1(2H)-one], the YAP1 levels result in the test with YAP1 (1 μM, 16 hours) is listed as “increase”; with YAP1 (3 μM and 10 μM, 72 hours), “low”. Besides, in the test on YAP1 (H929 cells, 1 μM, 24 hours), the “protein levels of YAP1” value is on record as “upregulation”.
`Nc1ncc(-c2ccc(NS(=O)(=O)C3CC3)cc2OC2CCCCC2)cc1-c1ccc2c(c1)CCNC2=O` [Compound I-65, N-(4-(6-amino-5-(1-oxo-1,2,3,4-tetrahydroisoquinolin-6-yl)pyridin-3-yl)-3-(cyclohexyloxy)phenyl) cyclopropanesulfonamide]: the inhibition at 10 µM was 0% at JAK2 domain2 (setting [1]), 18.8% at JAK2 domain2 (read-out: inhibition (10 μM)) and over 100% on ITPK1.
Turning to `COc1cc(NS(=O)(=O)C2CC2)ccc1-c1cnc(N)c(-c2ccc3c(c2)CCNC3=O)c1` [Compound I-50, N-(4-(6-amino-5-(1-oxo-1,2,3,4-tetrahydroisoquinolin-6-yl)pyridin-3-yl)-3-methoxyphenyl) cyclopropanesulfonamide], in the test with MM.1S cells, the “susceptibility of cells on co-culture with stromal cell supernatant (cell growth, MTT)” value is on record as “enhanced the susceptibility” and the “growth inhibitory effect of Lenalidomide/Pomalidomide in combination” value is recorded as “enhanced the growth inhibitory effect”. Besides, the inhibition at 10 µM at JAK2 domain2 (setting [1]) was determined as 0%. For the same molecule, the inhibition at 10 µM on JAK2 domain2 (read-out: inhibition (10 μM)) is -71.2%.
In the case of `Nc1ncc(-c2cccc3ncsc23)cc1-c1ccc2c(c1)CCNC2=O` [Compound I-13, 6-(2-amino-5-(benzo[d]thiazol-7-yl)pyridin-3-yl)-3,4-dihydroisoquinolin-1(2H)-one], the YAP1 levels result in the test with YAP1 (1 μM, 16 hours) is “increase”.
Consider `Nc1ncc(-c2cc([N+](=O)[O-])ccc2F)cc1-c1ccc2c(c1)CCNC2=O` [Compound I-1, 6-(2-amino-5-(2-fluoro-5-nitrophenyl)pyridin-3-yl)-3,4-dihydroisoquinolin-1(2H)-one], for which the IC50 against MST4 is over 900 nM. Further, the “protein levels of YAP1” value in the test with YAP1 (H929 cells and MM.1S cells, 1 μM and 10 μM, 16 hours) is given as “upregulation”.

These data come from US10710978B2, “STK4 inhibitors for treatment of hematologic malignancies” (Dana-Farber Cancer Institute, Inc., priority 2015, dated 2020).
